Test results published in patent US10287308B2, “Compounds, compositions, and methods for the treatment of cancers” (priority 2013, dated 2019).

Experiments:
[1] = logP by reverse phase HPLC retention time against a calibration curve; conditions: chromatographic method, Zorbax Eclipse XDB C8, 30° C.
[2] = Maximum tolerated dose used in the mouse PK/PD study; type: in vivo; conditions: H460 tumor-bearing mice
[3] = H460 tumor-bearing nude mice, intravenous, dosed at MTD as free drug, 24 hour time point, FIG. 2
Protocol: Animals were inoculated with 5×10^5 H460 small cell lung cancer cells via subcutaneous injection to the flank. Tumors were allowed to reach an approximate volume of ˜500 mm^3. Animals were then randomized into treatment groups of 3 animals per time point and were dosed at the maximum tolerated dose (MTD). The 24 hour time point was used as a benchmark across compounds
Tumor platinum levels were determined by inductively coupled plasma mass spectrometry (ICP-MS). Tumors were excised from animals and dissolved in fuming nitric acid (60% w/w) by adding four parts nitric acid to 1 part tumor w/w and heating overnight at 60 degrees Centigrade. The resulting digest was diluted 1:10 in ICP-MS analysis buffer (1% nitric acid, 2% Triton® x-100), and directly introduced into the ICP-MS unit by peristaltic pump. The end dilution factor for the samples as introduced to the ICP-MS was 50×.

| SMILES | chromatographic logP (physchem) | Measured LogP [1] | Dose (mg/kg), dosed at the maximum tolerated dose (MTD) [2] [mg/kg] | platinum levels in the tumor [3] |
| --- | --- | --- | --- | --- |
| CCNC(=O)[O][Pt]([NH2])([NH2])([Cl])([Cl])[O]C(C)=O [Compound 1] | < 1 | – | – | – |
| CCNC(=O)[O][Pt]([NH2])([NH2])([Cl])([Cl])[O]C(=O)NCC [Compound 5] | – | <1 | 30 | higher platinum levels |
